Data: patent US9179674B2, “Macrocyclic picolinamide compounds with fungicidal activity” (DOW AGROSCIENCES LLC, priority 2013, dated 2015)
Read-outs that look alike come from different tables or passages of the source.

Legend:
Puccinia triticina = assay: Wheat Brown Rust fungicidal activity (PUCCRT); assay type: in vivo; settings: Puccinia triticina; for pest or weed control at 100 ppm: rate 100 ppm; for pest or weed control at 121.5 g/ha: rate 121.5 g/H
Description: Technical grades of materials were dissolved in acetone, which were then mixed with nine volumes of water containing 110 ppm Triton X-100. The fungicide solutions were applied onto wheat seedlings using an automated booth sprayer to run-off. All sprayed plants were allowed to air dry prior to further handling. All fungicides were evaluated using the aforementioned method for their activity vs. all target diseases. Wheat leaf blotch and brown rust activity were also evaluated using track spray applications, in which case the fungicides were formulated as EC formulations, containing 0.1% Trycol 5941 in the spray solutions. Wheat plants (variety Yuma) were grown from seed in a greenhouse in 50% mineral soil/50% soil-less Metro mix until the first leaf was fully emerged, with 7-10 seedlings per pot. These plants were inoculated with an aqueous spore suspension of Septoria tritici either prior to or after fungicide treatments. After inoculation the plants were kept in 100% relative humidity (one day in a dark dew chamber followed by two to three days in a lighted dew chamber at 20° C.) to permit spores to germinate and infect the leaf. The plants were then transferred to a greenhouse set at 20° C. for disease to develop. When disease symptoms were fully expressed on the 1st leaves of untreated plants, infection levels were assessed on a scale of 0 to 100 percent disease severity. Percent disease control was calculated using the ratio of disease severity on treated plants relative to untreated plants. Evaluation of Fungicidal Activity: Wheat Brown Rust (Puccinia triticina; Synonym: Puccinia recondite f sp. tritici; Bayer code PUCCRT) Wheat plants (variety Yuma) were grown from seed in a greenhouse in 50% mineral soil/50% soil-less Metro mix until the first leaf was fully emerged, with 7-10 seedlings per pot. These plants were inoculated with an aqueous spore suspension of Puccinia triticina either prior to or after fungicide treatments. After inoculation the plants were kept in a dark dew room at 22° C. with 100% relative humidity overnight to permit spores to germinate and infect the leaf. The plants were then transferred to a greenhouse set at 24° C. for disease to develop. Fungicide formulation, application and disease assessment followed the procedures as described in the Example A.

[1] = system: Mycosphaerella graminicola; Anamorph: Septoria tritici; assay: Leaf Blotch of Wheat fungicidal activity (SEPTTR); assay type: in vivo; settings: Zymoseptoria tritici; for pest or weed control at 100 ppm: rate 100 ppm; for pest or weed control at 121.5 g/ha: rate 121.5 g/H
Description: Evaluation of Fungicidal Activity: Leaf Blotch of Wheat (Mycosphaerella graminicola; Anamorph: Septoria tritici; Bayer code […]) Technical grades of materials were dissolved in acetone, which were then mixed with nine volumes of water containing 110 ppm Triton X-100. The fungicide solutions were applied onto wheat seedlings using an automated booth sprayer to run-off. All sprayed plants were allowed to air dry prior to further handling. All fungicides were evaluated using the aforementioned method for their activity vs. all target diseases. Wheat leaf blotch and brown rust activity were also evaluated using track spray applications, in which case the fungicides were formulated as EC formulations, containing 0.1% Trycol 5941 in the spray solutions. Wheat plants (variety Yuma) were grown from seed in a greenhouse in 50% mineral soil/50% soil-less Metro mix until the first leaf was fully emerged, with 7-10 seedlings per pot. These plants were inoculated with an aqueous spore suspension of Septoria tritici either prior to or after fungicide treatments. After inoculation the plants were kept in 100% relative humidity (one day in a dark dew chamber followed by two to three days in a lighted dew chamber at 20° C.) to permit spores to germinate and infect the leaf. The plants were then transferred to a greenhouse set at 20° C. for disease to develop. When disease symptoms were fully expressed on the 1st leaves of untreated plants, infection levels were assessed on a scale of 0 to 100 percent disease severity. Percent disease control was calculated using the ratio of disease severity on treated plants relative to untreated plants.

[2] = 24 h, 1 Day Protectant, read-out: Disease control PUCCRT 1DP
[3] = 24 h, 1 Day Protectant, read-out: Disease control SEPTTR 1DP
[4] = 72 h, 3 Day Curative, read-out: Disease control SEPTTR 3DC
[5] = 72 h, 3 Day Curative, read-out: Disease control PUCCRT 3DC

Compound	pest or weed control at 100 ppm (Puccinia triticina; [2])	pest or weed control at 100 ppm [1, 3]	pest or weed control at 100 ppm [1, 4]	pest or weed control at 121.5 g/ha (Puccinia triticina; [2])	pest or weed control at 100 ppm (Puccinia triticina; [5])	pest or weed control at 121.5 g/ha (Puccinia triticina; [5])	pest or weed control at 121.5 g/ha [1, 3]	pest or weed control at 121.5 g/ha [1, 4]
COc1ccnc(C(=O)N[C@H]2COC[C@H](CCC(C)C)[C@@H](OCCCC(F)(F)F)[C@H](C)OC2=O)c1O [Compound F35]	80 to 100%	80 to 100%	0 to 80%	–	–	–	–	–
COc1ccnc(C(=O)N[C@H]2COC[C@H](Cc3ccc(C)cc3)[C@@H](OC(=O)C3CC3)[C@H](C)OC2=O)c1OC(C)=O [Compound F61]	80 to 100%	80 to 100%	80 to 100%	80 to 100%	80 to 100%	0 to 80%	80 to 100%	0 to 80%
COc1ccnc(C(=O)N[C@H]2COC[C@H](CCC(C)C)[C@@H](OC3CCCC3)[C@H](C)OC2=O)c1OC(C)=O [Compound F71]	80 to 100%	80 to 100%	80 to 100%	–	80 to 100%	–	–	–
COc1ccnc(C(=O)N[C@H]2COC[C@H](CCC(C)C)[C@@H](OC3CCCC3)[C@H](C)OC2=O)c1O [Compound F39]	80 to 100%	80 to 100%	80 to 100%	–	80 to 100%	–	–	–
COc1ccnc(C(=O)N[C@H]2COC[C@H](Cc3ccc(C)cc3)[C@@H](Oc3ccccc3)[C@H](C)OC2=O)c1O [Compound F24]	80 to 100%	80 to 100%	0 to 80%	–	0 to 80%	–	–	–
CCCO[C@@H]1[C@@H](Cc2ccc(C(F)(F)F)cc2)COC[C@H](NC(=O)c2nccc(OC)c2O)C(=O)O[C@H]1C [Compound F29]	80 to 100%	80 to 100%	80 to 100%	–	0 to 80%	–	–	–
CCCCCO[C@@H]1[C@@H](Cc2ccc(C)cc2)COC[C@H](NC(=O)c2nccc(OC)c2OC(C)=O)C(=O)O[C@H]1C [Compound F53]	80 to 100%	80 to 100%	80 to 100%	80 to 100%	80 to 100%	0 to 80%	80 to 100%	0 to 80%
CCCO[C@@H]1[C@@H](Cc2ccc(C(F)(F)F)cc2)COC[C@H](NC(=O)c2nccc(OC)c2OCOC(C)=O)C(=O)O[C@H]1C [Compound F101]	80 to 100%	80 to 100%	80 to 100%	–	80 to 100%	–	–	–
COc1ccnc(C(=O)N[C@H]2COC[C@H](CC(F)(F)F)[C@@H](OCC(C)C)[C@H](C)OC2=O)c1O [Compound F32]	80 to 100%	80 to 100%	0 to 80%	–	0 to 80%	–	–	–
COc1ccnc(C(=O)N[C@H]2COC[C@H](CCc3ccccc3)[C@@H](OC(=O)C3CC3)[C@H](C)OC2=O)c1OCOC(C)=O [Compound F92]	80 to 100%	80 to 100%	80 to 100%	80 to 100%	80 to 100%	80 to 100%	80 to 100%	80 to 100%
COc1ccnc(C(=O)N[C@H]2COC[C@H](Cc3ccc(C)cc3)[C@@H](OC(=O)C3CC3)[C@H](C)OC2=O)c1O [Compound F22]	0 to 80%	–	0 to 80%	–	0 to 80%	–	–	–
COc1ccnc(C(=O)N[C@H]2COC[C@H](Cc3ccc(C)cc3)[C@@H](OC(=O)C3CC3)[C@H](C)OC2=O)c1OCOC(C)=O [Compound F97]	80 to 100%	80 to 100%	0 to 80%	80 to 100%	80 to 100%	80 to 100%	80 to 100%	80 to 100%
COc1ccnc(C(=O)N[C@H]2COC[C@H](Cc3ccc(C(F)(F)F)cc3)[C@@H](OC3CCCC3)[C@H](C)OC2=O)c1OC(C)=O [Compound F66]	80 to 100%	80 to 100%	0 to 80%	80 to 100%	0 to 80%	0 to 80%	80 to 100%	0 to 80%
COc1ccnc(C(=O)N[C@H]2COC[C@H](Cc3ccc(C(F)(F)F)cc3)[C@@H](OC(=O)C3CC3)[C@H](C)OC2=O)c1OCOC(C)=O [Compound F98]	80 to 100%	80 to 100%	80 to 100%	80 to 100%	80 to 100%	0 to 80%	80 to 100%	0 to 80%
COc1ccnc(C(=O)N[C@H]2COC[C@H](Cc3ccc(C(F)(F)F)cc3)[C@@H](OCC(C)C)[C@H](C)OC2=O)c1O [Compound F27]	80 to 100%	80 to 100%	0 to 80%	–	0 to 80%	–	–	–
COc1ccnc(C(=O)N[C@H]2COC[C@H](Cc3ccc(C(F)(F)F)cc3)[C@@H](OC3CCCC3)[C@H](C)OC2=O)c1OCOC(C)=O [Compound F100]	80 to 100%	80 to 100%	80 to 100%	80 to 100%	80 to 100%	0 to 80%	80 to 100%	0 to 80%
COc1ccnc(C(=O)N[C@H]2COC[C@H](CCC(C)C)[C@@H](Oc3ccc(C)cc3)[C@H](C)OC2=O)c1OC(C)=O [Compound F69]	80 to 100%	80 to 100%	80 to 100%	80 to 100%	80 to 100%	0 to 80%	80 to 100%	80 to 100%
COc1ccnc(C(=O)N[C@H]2COC[C@H](Cc3ccc(F)cc3)[C@@H](OC3CCCC3)[C@H](C)OC2=O)c1OCOC(C)=O [Compound F94]	80 to 100%	80 to 100%	80 to 100%	80 to 100%	80 to 100%	80 to 100%	80 to 100%	80 to 100%
COc1ccnc(C(=O)N[C@H]2COC[C@H](CCc3ccccc3)[C@@H](OC(=O)C3CC3)[C@H](C)OC2=O)c1O [Compound F15]	80 to 100%	80 to 100%	80 to 100%	–	0 to 80%	–	–	–
COc1ccnc(C(=O)N[C@H]2COC[C@H](Cc3ccc(C)cc3)[C@@H](Oc3ccccc3)[C@H](C)OC2=O)c1OC(C)=O [Compound F63]	80 to 100%	80 to 100%	80 to 100%	80 to 100%	80 to 100%	0 to 80%	80 to 100%	80 to 100%
